Laboratory results from article PMC5652080 (Current Enzyme Inhibition, 2015).

Assays:
[1] = target: Triosephosphate isomerase (WT HsTIM) (Homo sapiens, UniProt P60174); experiment: coupled enzyme assay, Kmapp vs PEP at varied GAP; assay type: biochemical
[2] = target: Triosephosphate isomerase (G233D HsTIM) (Homo sapiens, UniProt P60174, G233D); experiment: coupled enzyme assay, Kmapp vs PEP at varied GAP; assay type: biochemical
Triosephosphate isomerase (G233D HsTIM), sequence (P60174 2-249 G233D): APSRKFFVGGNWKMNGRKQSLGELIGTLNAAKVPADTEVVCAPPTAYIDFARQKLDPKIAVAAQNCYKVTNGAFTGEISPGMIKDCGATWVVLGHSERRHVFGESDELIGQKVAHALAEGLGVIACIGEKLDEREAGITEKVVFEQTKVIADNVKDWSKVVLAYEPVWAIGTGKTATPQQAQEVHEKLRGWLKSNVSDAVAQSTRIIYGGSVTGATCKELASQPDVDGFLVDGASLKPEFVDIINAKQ

Triosephosphate isomerase (WT HsTIM), sequence (P60174 2-249): as the sequence (P60174 2-249 G233D) above, with D232G counted along it

- Ki [1]: 123 ± 5 µM
- Ki [2]: 120 ± 5.2 µM
SMILES: C=C(OP(=O)(O)O)C(=O)O [phosphoenolpyruvate]
